These results are taken from the METLIN SMRT retention time set (Domingo-Almenara et al. 2019).

Structures are written as SMILES.

This data set is described as follows: gradient 5% acetonitrile 3 min, to 50% in 2 min, to 85% in 15 min, held 3 min, 100 µL/min. The conditions noted are these: column: Zorbax Extend-C18 2.1 x 50 mm; eluents: water / acetonitrile, 0.1% formic acid. In short, it runs like this: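 The system's dead and dwell volumes were 40 μL and 900 μL, with a Zorbax Extend-C18 column (2.1 × 50 mm, 1.8 μm) run at 100 μL/min in water and acetonitrile containing 0.1% formic acid each. Pure standards were analyzed in mixtures of ~100 molecules by HPLC–quadrupole time-of-flight mass spectrometry in positive and negative ionization mode. Retention time was assigned from computationally picked, manually inspected adduct peaks.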
`CCC(C)NC(=O)c1c2c(cn(-c3ccc(F)cc3)c1=O)C(=O)CC(C)(C)C2` (stereo not given) yielded an RP-LC retention time of 920 s.

`O=C(CCc1nc2ccccc2n(CC(=O)Nc2cc(F)cc(F)c2)c1=O)NCc1ccccc1` displayed an RP-LC retention time of 890 s.

Take `Cc1c(CC(=O)NC2CC2)c(=O)n2nc(-c3ccccc3)nc2n1C`: the RP-LC retention time was found to be 651 s.

`Cc1nc2cc(C(=O)N3CCOCC3)ccc2n(C)c1=O`: the RP-LC retention time was 596 s.

`O=C(CNC(=O)c1ccncc1)Nc1nc2ccccc2[nH]1`: the RP-LC retention time was 554 s.

For the molecule `CCOc1ccc(-c2csc(Nc3cc(C)ccn3)n2)cc1`, the RP-LC retention time worked out at 833 s.

Regarding `Cc1ccc(NC(=O)c2cnn3c2CCCC3)cc1`, the RP-LC retention time worked out at 770 s.

For the molecule `CCOc1ccccc1CNC(=O)c1ccc2c(c1)NC(=O)C1CCCCN21` (stereo not given), the RP-LC retention time turned out to be 876 s.

`COc1ccc(Br)cc1CNC(=O)C1CCCN(c2ccc(N3CCOCC3)nn2)C1` (stereo not given) yielded an RP-LC retention time of 668 s.

The molecule `O=C(NCc1csc(-c2ccccc2)n1)C1CCN(S(=O)(=O)c2cccc(Cl)c2)CC1` yielded an RP-LC retention time of 962 s.

`O=C(Cn1c(=O)oc2ccccc21)N1CCCC(COCc2ccccc2)C1` (stereo not given) had an RP-LC retention time of 897 s.

Take `CCOc1ccc(NC(=O)C2=C(C)NC(=O)NC2c2ccc([N+](=O)[O-])cc2)cc1` (stereo not given): the RP-LC retention time amounted to 695 s.

`CCOC(=O)CNC(=O)NC(C(=O)N1CCc2ccccc21)c1ccccc1` (stereo not given): the RP-LC retention time stood at 832 s.

In the case of `CCC(=O)Nc1ccc(CCc2nc3ccc(C(=O)NCc4ccc(SC)cc4)cc3[nH]2)cc1`, the RP-LC retention time worked out at 683 s.

Take `O=C(NCc1cccc(F)c1)c1ccc2c(c1)Sc1ncccc1C(=O)N2C1CC1`: the RP-LC retention time stood at 823 s.

`Cc1ccccc1-c1noc(Cn2c(=O)n(-c3ccccc3F)c(=O)c3sccc32)n1` returned an RP-LC retention time of 1030 s.

The molecule `CC(C)NC(=O)C1(C)CC(c2ccccc2)=NO1` (stereo not given) registered an RP-LC retention time of 799 s.

Consider `CCn1ccc2c(cc(C(=O)Nc3ccccc3C(F)(F)F)n2C)c1=O`, for which the RP-LC retention time was determined as 742 s.

In the case of `O=C(Cc1ccc(F)cc1)NC1CCN(c2cc(-c3ccc(F)cc3)[nH]n2)C1` (stereo not given), the RP-LC retention time stood at 720 s.

`O=C(CCc1ccc2[nH]ccc2c1)N1CCN(c2ccccc2)CC1`: the RP-LC retention time was determined as 856 s.

With `Cc1cnc(C2CCC2)n1CCNS(=O)(=O)c1ccccc1`, the RP-LC retention time was determined as 615 s.

On to `Cc1cccc(-n2ncc3c(N4CCN(CCO)CC4)ncnc32)c1`, for which the RP-LC retention time turned out to be 622 s.

The molecule `O=C(NC1CC1)[C@@H]1C[C@H](Oc2ccccc2)CN1C(=O)c1ccoc1` had an RP-LC retention time of 709 s.

`CC1(C(=O)Nc2ccc(Cl)cc2F)Oc2cccnc2NC1=O` (stereo not given) came in with an RP-LC retention time of 774 s.

Molecule `C=CCNC(=O)c1c(O)c2cccnc2n(-c2ccc(OC)cc2)c1=O` yielded an RP-LC retention time of 1020 s.

With `CC(C)(C)CC(C)(C)NCC(O)COC(C)(C)C` (stereo not given), the RP-LC retention time stood at 588 s.

With `O=S(=O)(c1ccc(Cl)cc1)N1CCC2(CC1)NCCN=C2NCc1ccccc1F`, the RP-LC retention time was determined as 730 s.

`Cc1ccn2c(Nc3ccc4c(c3)OCCO4)c(-c3ccc(N(C)C)cc3)nc2c1`: the RP-LC retention time came to 734 s.

As for `CCCN(C)C(=O)C1CCN(c2cnn(CCC)c(=O)c2)CC1`, the RP-LC retention time worked out at 669 s.

For the molecule `CN1CCN(CCCNC(=O)C2CCN(C(=O)c3ccc(-n4ccc5ccccc54)s3)CC2)CC1`, the RP-LC retention time was determined as 630 s.

As for `O=S(=O)(/C=C/c1ccccc1)NCC1CCN(Cc2ccsc2)CC1`, the RP-LC retention time is 586 s.

For `COc1ccc(C(=O)Nc2c(-c3ccccc3)nc3ccccn23)c(OC)c1`, the RP-LC retention time was 664 s.

Molecule `CCN1C(=O)c2cccnc2Sc2cc(NC(=O)c3ccc(OC)nc3)ccc21` yielded an RP-LC retention time of 756 s.

Regarding `Fc1cc(F)c2c(c1)C1C=CCC1C(c1cccnc1)N2` (stereo not given), the RP-LC retention time is 706 s.

Regarding `CCOc1ccccc1NC(=O)C1CCN(S(=O)(=O)c2ccc3[nH]c(=O)ccc3c2)CC1`, the RP-LC retention time worked out at 789 s.

`Cc1csc(-c2cc(S(=O)(=O)NCC(C)C)cn2CC(=O)N2CCCCC2)n1` came in with an RP-LC retention time of 926 s.

`O=C1C2ON(c3ccccc3)C(c3ccccn3)C2C(=O)N1c1cccc(C(F)(F)F)c1` (stereo not given) showed an RP-LC retention time of 994 s.

Turning to `CCC(=O)N1CCCN(C2=NS(=O)(=O)C(c3ccccc3)=C2C)CC1`, the RP-LC retention time was found to be 694 s.

In turn, `CN1C(=O)C(C)(C(=O)NCc2ccccc2Cl)Oc2cccnc21` (stereo not given) gave an RP-LC retention time of 795 s.

As to `O=C(NC1CC1)c1cn(-c2ncccc2-c2nc(-c3ccccc3)no2)cn1`, the RP-LC retention time was 762 s.

For `CC1(C)CC(=O)c2cn(-c3ccc(Cl)cc3)c(=O)c(C(=O)N3CCCC3)c2C1`, the RP-LC retention time came out at 786 s.

As to `Cc1nn(CC(=O)NCCN2CCCCCC2)c(=O)c2nc(-c3ccccc3)sc12`, the RP-LC retention time turned out to be 657 s.

Molecule `COC(=O)CS(=O)c1ccc(C(F)(F)F)cc1[N+](=O)[O-]` (stereo not given) showed an RP-LC retention time of 730 s.

On to `O=C1CC(c2noc(-c3ccccc3Cl)n2)CN1c1ccc(F)cc1` (stereo not given), for which the RP-LC retention time is 964 s.

Molecule `COc1ccccc1OC(C)C(=O)N(Cc1ccc(C)o1)C1CCS(=O)(=O)C1` (stereo not given) registered an RP-LC retention time of 847 s.

Molecule `CC(C)C(=O)Nc1nc(-c2cccc3ccccc23)cs1` returned an RP-LC retention time of 1020 s.

In the case of `CCS(=O)(=O)Nc1ccc(-c2noc(COc3ccc(OC)cc3)n2)cc1`, the RP-LC retention time was found to be 919 s.

In turn, `COc1ccccc1C(=O)N1CCCC(COc2ccc(C(=O)NC3CC3)cc2)C1` (stereo not given) yielded an RP-LC retention time of 785 s.

`COc1ccc(CCC(=O)Nc2cnn(-c3ncc(N(C)C)cn3)c2)cc1`: the RP-LC retention time is 737 s.

`CCc1nc2cc(-c3noc(CNC(=O)c4ccccc4)n3)ccc2o1` gave an RP-LC retention time of 821 s.

`Cc1cc(C)n2nc(SCC(=O)NC(C)C)nc2n1` yielded an RP-LC retention time of 613 s.

`COc1cccc(-c2noc(C3CCCN3C(=O)Nc3ccc4c(c3)OCCO4)n2)c1` (stereo not given) gave an RP-LC retention time of 886 s.

The molecule `COc1ccc(-c2ncccc2CNS(=O)(=O)c2ccc(C(F)(F)F)cc2)cc1` yielded an RP-LC retention time of 764 s.

`O=C(NCc1cccc(Cl)c1)C1=C2CCCN2c2ccc(F)cc2S1(=O)=O` returned an RP-LC retention time of 933 s.

Take `Cn1nc(C(=O)N2CCCC2)c2c1CCN(C(=O)CCC(=O)N1CCCCCC1)C2`: the RP-LC retention time was 664 s.

Turning to `CCc1ccc(NC(=O)N2CCc3nc(-c4ccc(Cl)cc4)ncc3C2)cc1`, the RP-LC retention time worked out at 1150 s.

With `O=C(Cn1c(=O)oc2ccccc21)NCCc1csc2nc(-c3ccccc3F)nn12`, the RP-LC retention time worked out at 746 s.

For the molecule `O=C(CSc1nc2ccc([N+](=O)[O-])cc2s1)c1ccc(F)cc1`, the RP-LC retention time is 1030 s.

`O=C(NC1CCCN(c2cc(-c3ccncc3)[nH]n2)C1)c1ccc2c(c1)OCO2` (stereo not given) gave an RP-LC retention time of 603 s.

Turning to `CC(C)N1CC(CNC(=O)c2ccco2)C2(CCCCC2)C1` (stereo not given), the RP-LC retention time stood at 593 s.

As for `CCOC(=O)c1ccccc1NC(=O)N1CCSc2nc(C)cc(C)c21`, the RP-LC retention time was found to be 1000 s.

Consider `CCOc1ccccc1CN1C(=O)C2(CCOCC2)CC1c1nnnn1C(C)(C)C` (stereo not given), for which the RP-LC retention time was 799 s.

`COc1c(C)cnc(Cn2cnc3c(Cl)nc(N)nc32)c1C` returned an RP-LC retention time of 638 s.

`CC(C)CN1CCN(C(=O)CN2CCN(Cc3ccc(F)cc3)C2=O)CC1` yielded an RP-LC retention time of 602 s.

Take `CCn1c(=O)c(SCC(=O)NCCCN2CCCCC2C)nc2ccccc21` (stereo not given): the RP-LC retention time was 602 s.

`c1nc(N2CCOCC2)c2cn[nH]c2n1` returned an RP-LC retention time of 340 s.

Molecule `Cc1ccc(NC(=O)N2CC(c3nc(C(C)C)nn3C)C2)cc1F` showed an RP-LC retention time of 706 s.

Regarding `CCOc1ccccc1NC(=O)N1CCC2(CC1)NC(=O)c1ccccc1O2`, the RP-LC retention time was determined as 810 s.

`Cc1noc(C)c1C(=O)N1CCCC1Cc1noc(-c2cnccn2)n1` (stereo not given) gave an RP-LC retention time of 661 s.

As to `Cc1ccc(-c2nnc(COc3cccc(NC(=O)c4n[nH]c5c4CCCC5)c3)o2)cc1`, the RP-LC retention time amounted to 1010 s.

`Cc1cc(=O)n(CC(=O)N2CCN(c3ccc(F)cc3)CC2)c(N2CCc3ccccc3C2)n1` displayed an RP-LC retention time of 799 s.

Consider `Cc1csc(NC(=O)C2CCN(S(=O)(=O)c3cc(C(=O)N4CCOCC4)cs3)CC2)n1`, for which the RP-LC retention time stood at 702 s.

For the molecule `CC(C)N1CCN(Cc2ccc(C(=O)NCc3ccccc3)cc2)C(=O)C1=O`, the RP-LC retention time was found to be 685 s.

Consider `O=S(=O)(c1ccc(-c2noc(-c3ccccc3Br)n2)cc1)N1CCCC1`, for which the RP-LC retention time turned out to be 1220 s.

On to `O=C(c1cccs1)N1CCCC(c2nncn2-c2ccccc2)C1` (stereo not given), for which the RP-LC retention time is 688 s.

In turn, `O=c1c2sccc2n(Cc2nc(-c3ccc(F)cc3)no2)c(=O)n1CCc1ccccc1` yielded an RP-LC retention time of 1140 s.

The molecule `CC(C)N1CCc2c(sc(NC(=O)c3ccc([N+](=O)[O-])s3)c2C(N)=O)C1` returned an RP-LC retention time of 573 s.

With `COc1nc2ccccc2nc1N1CCCC(C(=O)NCc2ccccc2)C1` (stereo not given), the RP-LC retention time is 1040 s.

Molecule `Cc1nn(CC(=O)NCc2ccc(F)cc2)c(=O)c2nc(-c3ccccc3)sc12` registered an RP-LC retention time of 872 s.

The molecule `CCCS(=O)(=O)N1CCCN(C2=NS(=O)(=O)C(c3cccc(Cl)c3)=C2C)CC1` yielded an RP-LC retention time of 891 s.
